One assay concerns RPMI-8226. Put plainly: Antiproliferative activity against human RPMI-8226 cells assessed as inhibition of cell growth measured after 72 hrs by MTS method. The class given is functional, cell-based. The conditions noted are these: RPMI-8226, 72 h. Background: Tetrazolium dyes change colour on reduction, which living cells bring about.
The target of assay [1] is T1, Proteasome Macropain subunit MB1 (Homo sapiens, UniProt P28074).
T1 sequence (P28074 whole entry): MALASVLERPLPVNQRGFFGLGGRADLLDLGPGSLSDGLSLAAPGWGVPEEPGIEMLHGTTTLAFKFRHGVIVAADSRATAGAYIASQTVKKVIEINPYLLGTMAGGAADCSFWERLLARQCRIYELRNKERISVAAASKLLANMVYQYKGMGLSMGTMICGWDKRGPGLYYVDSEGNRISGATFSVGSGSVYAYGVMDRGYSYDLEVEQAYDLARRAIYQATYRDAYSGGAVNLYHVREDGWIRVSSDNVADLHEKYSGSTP
Description: Inhibition of human 20S proteosome beta5c subunit using Ac-WLA-AMC as substrate by microplate reader analysis.

For a further assay, the system named is A-375. Put plainly: Antiproliferative activity against human A-375 cells assessed as inhibition of cell growth measured after 48 hrs by cell titer-blue cell viability assay. The class given is functional, cell-based. The note with it: A-375, 48 h. On the technique in general: Resazurin is reduced to fluorescent resorufin, in cell work by metabolically active cells.

The next assay addresses 20S proteasome. Description: Inhibition of human 20S proteasome chymotrypsin-like activity using Suc-LLVY-Glo as a […] substrate measured after 10 mins by luminescence based analysis. The class given is protein-complex assay.
Assay [2] addresses Histone deacetylase 1 (Homo sapiens) (UniProt Q13547). Put plainly: Inhibition of HDAC1 (unknown origin) at 1 uM incubated for 1 hr by fluorescence based microplate reader analysis relative to control.
Assay [3] has as its target T2, Protein deacetylase HDAC6 (Homo sapiens) (UniProt Q9UBN7).
T2 sequence (whole entry): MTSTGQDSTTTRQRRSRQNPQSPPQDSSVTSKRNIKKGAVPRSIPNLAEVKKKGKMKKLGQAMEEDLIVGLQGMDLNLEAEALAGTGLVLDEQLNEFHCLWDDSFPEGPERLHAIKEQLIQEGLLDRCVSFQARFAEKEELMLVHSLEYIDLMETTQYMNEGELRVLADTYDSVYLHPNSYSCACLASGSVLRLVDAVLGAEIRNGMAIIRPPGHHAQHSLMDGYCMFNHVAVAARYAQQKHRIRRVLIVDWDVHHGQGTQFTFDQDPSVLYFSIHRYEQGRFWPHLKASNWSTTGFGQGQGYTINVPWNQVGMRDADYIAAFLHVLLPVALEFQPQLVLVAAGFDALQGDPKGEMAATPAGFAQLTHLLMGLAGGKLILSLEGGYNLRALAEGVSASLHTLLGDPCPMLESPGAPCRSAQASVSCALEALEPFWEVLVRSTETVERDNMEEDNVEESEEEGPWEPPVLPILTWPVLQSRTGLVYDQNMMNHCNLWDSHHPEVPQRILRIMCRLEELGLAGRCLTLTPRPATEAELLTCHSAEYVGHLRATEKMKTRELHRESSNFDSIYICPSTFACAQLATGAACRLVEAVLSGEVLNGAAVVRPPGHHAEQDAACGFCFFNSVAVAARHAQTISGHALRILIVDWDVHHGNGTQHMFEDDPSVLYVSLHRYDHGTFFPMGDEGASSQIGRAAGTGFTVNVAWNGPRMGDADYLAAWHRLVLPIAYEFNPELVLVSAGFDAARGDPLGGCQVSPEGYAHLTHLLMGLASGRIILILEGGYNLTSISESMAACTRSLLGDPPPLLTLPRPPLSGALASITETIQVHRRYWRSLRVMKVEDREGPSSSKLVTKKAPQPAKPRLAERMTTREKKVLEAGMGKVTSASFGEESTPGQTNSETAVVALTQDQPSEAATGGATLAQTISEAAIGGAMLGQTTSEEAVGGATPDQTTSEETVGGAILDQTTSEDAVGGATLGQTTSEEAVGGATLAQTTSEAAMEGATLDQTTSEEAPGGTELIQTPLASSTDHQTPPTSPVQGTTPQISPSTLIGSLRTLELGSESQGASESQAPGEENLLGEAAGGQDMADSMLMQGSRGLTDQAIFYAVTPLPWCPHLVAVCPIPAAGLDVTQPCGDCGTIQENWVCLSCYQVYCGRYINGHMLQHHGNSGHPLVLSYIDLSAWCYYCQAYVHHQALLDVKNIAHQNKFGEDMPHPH
Description: Inhibition of HDAC6 (unknown origin) at 1 uM incubated for 1 hr by fluorescence based microplate reader analysis relative to control.

SMILES strings stand for the structures.

Sequence of Histone deacetylase 1 (Homo sapiens) (Q13547 whole entry): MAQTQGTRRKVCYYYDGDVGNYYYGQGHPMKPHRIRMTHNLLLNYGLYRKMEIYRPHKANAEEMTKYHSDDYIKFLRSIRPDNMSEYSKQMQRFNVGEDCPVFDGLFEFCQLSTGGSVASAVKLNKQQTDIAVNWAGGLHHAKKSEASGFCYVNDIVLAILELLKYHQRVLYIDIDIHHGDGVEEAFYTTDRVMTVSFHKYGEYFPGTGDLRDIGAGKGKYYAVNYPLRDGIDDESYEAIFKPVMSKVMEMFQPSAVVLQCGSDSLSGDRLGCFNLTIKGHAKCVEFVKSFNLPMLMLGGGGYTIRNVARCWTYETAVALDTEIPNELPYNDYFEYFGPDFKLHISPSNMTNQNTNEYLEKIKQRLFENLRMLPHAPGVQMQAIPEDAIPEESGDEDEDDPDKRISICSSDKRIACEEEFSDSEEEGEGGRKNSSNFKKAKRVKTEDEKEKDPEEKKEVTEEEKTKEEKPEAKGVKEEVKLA

By IC50 is commonly meant the concentration that gives 50% inhibition. For the compound `C[C@H](NC(=O)[C@H](CC(=O)NCC(C)(C)C)NC(=O)c1c[nH]c2ccccc12)C(=O)NCc1ccc(F)cc1F`, the IC50 was 11.5 µM in the assay on RPMI-8226, 0.0024 µM in assay [1], 8.87 µM in the assay with A-375 and 0.729 µM against 20S proteasome.

In the case of `C[C@H](NC(=O)[C@H](CC(=O)NCC(C)(C)C)NC(=O)CCC(=O)Nc1ccc(C(=O)NO)cc1)C(=O)NCc1ccc(F)cc1F`, the IC50 was > 50 µM in the assay on RPMI-8226, > 50 µM with A-375 and > 30 µM against 20S proteasome.

In the case of `C[C@H](NC(=O)[C@H](CC(=O)NCC(C)(C)C)NC(=O)c1ccc(C(=O)NO)cc1)C(=O)NCc1ccc(F)cc1F`, the IC50 in the assay on RPMI-8226 was > 50 µM; against 20S proteasome, > 30 µM.

`C[C@H](NC(=O)[C@H](CC(=O)NCC(C)(C)C)NC(=O)CCCCCCC(=O)NO)C(=O)NCc1ccc(F)cc1F`: the IC50 is > 50 µM in the assay with RPMI-8226 and > 30 µM against 20S proteasome.

In general, inhibition refers to the relative decrease from the control value, in per cent. With `C[C@H](NC(=O)[C@H](CC(=O)NCC(C)(C)C)NC(=O)c1ccc(C(=O)Nc2ccccc2N)cc1)C(=O)NCc1ccc(F)cc1F`, the inhibition in assay [2] came to 65%; in assay [3], 13%. The IC50 in the assay with RPMI-8226 and in the assay on A-375 was > 50 µM each time.

As to `C[C@H](NC(=O)[C@H](CC(=O)NCC(C)(C)C)NC(=O)c1ccc(/C=C/C(=O)NO)cc1)C(=O)NCc1ccc(F)cc1F`, the IC50 came to 7.03 µM with RPMI-8226, 1.83 µM in the assay on A-375 and 0.199 µM at 20S proteasome.

The values are drawn from ChEMBL document CHEMBL5550115, “Histone deacetylase (HDAC) inhibitor specificity determinants are preserved in a class of dual HDAC/non-covalent proteasome inhibitors” (Bioorg Med Chem, 2024).
